What is called melting point is the temperature of the solid-liquid transition.

Each structure is given as a SMILES string.

Compound `Cc1cc(S(N)(=O)=O)ccc1NC(=O)Cc1ccc(C)c(Oc2cc(C#N)cc(C(F)F)c2)c1F` [Compound I-85, 2-[3-(3-Cyano-5-difluoromethyl-phenoxy)-2-fluoro-4-methyl-phenyl]-N-(2-methyl-4-sulfamoyl-phenyl)-acetamide] returned a melting point of 218 to 220.4 °C.

Compound `Cc1ccc(CC(=O)Nc2ccccc2Cl)c(F)c1Oc1cc(C#N)cc(C(F)F)c1` [Compound I-86, N-(2-Chloro-phenyl)-2-[3-(3-cyano-5-difluoromethyl-phenoxy)-2-fluoro-4-methyl-phenyl]-acetamide] yielded a melting point of 163.3 to 164.4 °C. As for `N#Cc1cc(Oc2cc(CC(=O)Nc3ccc(S(N)(=O)=O)cc3)ccc2Cl)cc(C(F)(F)F)c1` [Compound I-88, 2-[4-Chloro-3-(3-cyano-5-trifluoromethyl-phenoxy)-phenyl]-N-(4-sulfamoyl-phenyl)-acetamide], the figure is 219 to 221.4 °C. As for `Cc1cc(S(N)(=O)=O)ccc1NC(=O)Cc1ccc(Cl)c(Oc2cc(C#N)cc(C(F)(F)F)c2)c1` [Compound I-89, 2-[4-Chloro-3-(3-cyano-5-trifluoromethyl-phenoxy)-phenyl]-N-(2-methyl-4-sulfamoyl-phenyl)-acetamide], the figure is 211.6 to 214.6 °C; as for `N#Cc1cc(Oc2cc(CC(=O)Nc3ccc(S(N)(=O)=O)cc3Cl)ccc2Cl)cc(C(F)(F)F)c1` [Compound I-90, 2-[4-Chloro-3-(3-cyano-5-trifluoromethyl-phenoxy)-phenyl]-N-(2-chloro-4-sulfamoyl-phenyl)-acetamide], 198 to 202 °C. In turn, `CCc1ccc(CC(=O)Nc2ccc(S(N)(=O)=O)cc2)cc1Oc1cc(C#N)cc(C(F)F)c1` [Compound I-91, 2-[3-(3-Cyano-5-difluoromethyl-phenoxy)-4-ethyl-phenyl]-N-(4-sulfamoyl-phenyl)-acetamide] showed a melting point of 188 to 198 °C. As for `COc1ccc(CC(=O)Nc2ccc(S(N)(=O)=O)cc2)cc1Oc1cc(C#N)cc(C(F)F)c1` [Compound I-92, 2-[3-(3-Cyano-5-difluoromethyl-phenoxy)-4-methoxy-phenyl]-N-(4-sulfamoyl-phenyl)-acetamide], the figure is 213.9 to 214.2 °C; as for `COc1ccc(CC(=O)Nc2ccc(S(N)(=O)=O)cc2C)cc1Oc1cc(C#N)cc(C(F)F)c1` [Compound I-93, 2-[3-(3-Cyano-5-difluoromethyl-phenoxy)-4-methoxy-phenyl]-N-(2-methyl-4-sulfamoyl-phenyl)-acetamide], 175 to 177.2 °C. `COc1ccc(CC(=O)Nc2ccc(S(N)(=O)=O)cc2Cl)cc1Oc1cc(C#N)cc(C(F)F)c1` [Compound I-94, N-(2-Chloro-4-sulfamoyl-phenyl)-2-[3-(3-cyano-5-difluoromethyl-phenoxy)-4-methoxy-phenyl]-acetamide]: the melting point lay in the range of 185 to 187.9 °C. To `CC(F)(F)c1cc(C#N)cc(Oc2c(Cl)ccc(CC(=O)Nc3ccc(S(N)(=O)=O)cc3)c2F)c1` [Compound I-95, 2-{4-Chloro-3-[3-cyano-5-(1,1-difluoro-ethyl)-phenoxy]-2-fluoro-phenyl}-N-(4-sulfamoyl-phenyl)-acetamide] belongs 207 to 209.8 °C; to `Cc1cc(S(N)(=O)=O)ccc1NC(=O)Cc1ccc(Cl)c(Oc2cc(C#N)cc(C(C)(F)F)c2)c1F` [Compound I-96, 2-{4-Chloro-3-[3-cyano-5-(1,1-difluoro-ethyl)-phenoxy]-2-fluoro-phenyl}-N-(2-methyl-4-sulfamoyl-phenyl)-acetamide], 198.5 to 201 °C; to `CC(F)(F)c1cc(C#N)cc(Oc2c(Cl)ccc(CC(=O)Nc3ccc(S(N)(=O)=O)cc3Cl)c2F)c1` [Compound I-97, 2-{4-Chloro-3-[3-cyano-5-(1,1-difluoro-ethyl)-phenoxy]-2-fluoro-phenyl}-N-(2-chloro-4-sulfamoyl-phenyl)-acetamide], 192 to 197.6 °C. To `CCC(=O)N(C)S(=O)(=O)c1ccc(NC(=O)Cc2ccc(Cl)c(Oc3cc(Cl)cc(C#N)c3)c2F)c(C)c1` [Compound I-99, 2-[4-Chloro-3-(3-chloro-5-cyano-phenoxy)-2-fluoro-phenyl]-N-[2-methyl-4-(methyl-propionyl-sulfamoyl)-phenyl]-acetamide] belongs 212 to 216.9 °C; to `N#Cc1cc(Cl)cc(Oc2c(Cl)ccc(CC(=O)Nc3ccc(S(N)(=O)=O)cc3Cl)c2F)c1` [Compound I-100, 2-[4-Chloro-3-(3-chloro-5-cyano-phenoxy)-2-fluoro-phenyl]-N-(2-chloro-4-sulfamoyl-phenyl)-acetamide], 234.4 to 234.9 °C.

`COc1cc(CC(=O)Nc2ccc(S(N)(=O)=O)cc2)cc(Oc2cc(C#N)ccc2Cl)c1` [Compound I-102, 2-[3-(2-Chloro-5-cyano-phenoxy)-5-methoxy-phenyl]-N-(4-sulfamoyl-phenyl)-acetamide]: the melting point was in the range of 180.5 to 181.3 °C. To `COc1cc(CC(=O)Nc2ccc(S(N)(=O)=O)cc2C)cc(Oc2cc(C#N)ccc2Cl)c1` [Compound I-103, 2-[3-(2-Chloro-5-cyano-phenoxy)-5-methoxy-phenyl]-N-(2-methyl-4-sulfamoyl-phenyl)-acetamide] belongs 179.8 to 184 °C; to `CCc1cc(CC(=O)Nc2ccc(S(N)(=O)=O)cc2C)cc(Oc2cc(C#N)ccc2Cl)c1` [Compound I-106, 2-[3-(2-Chloro-5-cyano-phenoxy)-5-ethyl-phenyl]-N-(2-methyl-4-sulfamoyl-phenyl)-acetamide], 231.6 to 233.1 °C; to `CCc1cc(CC(=O)Nc2ccc(S(N)(=O)=O)cc2Cl)cc(Oc2cc(C#N)ccc2Cl)c1` [Compound I-107, 2-[3-(2-Chloro-5-cyano-phenoxy)-5-ethyl-phenyl]-N-(2-chloro-4-sulfamoyl-phenyl)-acetamide], 204 to 207 °C.

With `CNS(=O)(=O)c1ccc(NC(=O)Cc2ccc(Cl)c(Oc3cc(Cl)cc(C#N)c3)c2F)c(C)c1` [Compound I-108, 2-[4-Chloro-3-(3-chloro-5-cyano-phenoxy)-2-fluoro-phenyl]-N-(2-methyl-4-methylsulfamoyl-phenyl)-acetamide], the melting point fell in the range of 204.4 to 207.3 °C.

Turning to `N#Cc1cc(Cl)cc(Oc2c(Br)ccc(CC(=O)Nc3ccc(S(N)(=O)=O)cc3Cl)c2F)c1` [Compound I-109, 2-[4-Bromo-3-(3-chloro-5-cyano-phenoxy)-2-fluoro-phenyl]-N-(2-chloro-4-sulfamoyl-phenyl)-acetamide], the melting point was in the range of 165 to 166.6 °C. To `Cc1ccc(CC(=O)Nc2ccc(C(=O)O)cc2Cl)c(F)c1Oc1cc(C#N)cc(C(F)F)c1` [Compound I-110, 3-Chloro-4-{2-[3-(3-cyano-5-difluoromethyl-phenoxy)-2-fluoro-4-methyl-phenyl]-acetylamino}-benzoic acid] belongs 216.9 to 218.3 °C; to `CN(C(=O)Cc1ccc(Cl)c(Oc2cc(Cl)cc(C#N)c2)c1F)c1ccccc1Cl` [Compound I-111, 2-[4-Chloro-3-(3-chloro-5-cyano-phenoxy)-2-fluoro-phenyl]-N-(2-chloro-phenyl)-N-methyl-acetamide], 134 to 137.1 °C; to `Cc1ccc(CC(=O)Nc2ccc(S(C)(=O)=O)cc2Cl)c(F)c1Oc1cc(C#N)cc(C(F)F)c1` [Compound I-112, N-(2-Chloro-4-methanesulfonyl-phenyl)-2-[3-(3-cyano-5-difluoromethyl-phenoxy)-2-fluoro-4-methyl-phenyl]-acetamide], 179.9 to 182 °C. To `N#Cc1cc(Oc2c(F)c(CC(=O)Nc3ccc(S(N)(=O)=O)cc3)cc(Br)c2Br)cc(C(F)F)c1` [Compound I-114, 2-[4,5-Dibromo-3-(3-cyano-5-difluoromethyl-phenoxy)-2-fluoro-phenyl]-N-(4-sulfamoyl-phenyl)-acetamide] belongs 144 to 147 °C; to `Cc1cc(S(=O)(=O)N2CCSCC2)ccc1NC(=O)Cc1ccc(C)c(Oc2cc(Cl)cc(C#N)c2)c1` [Compound I-117, 2-[3-(3-Chloro-5-cyano-phenoxy)-4-methyl-phenyl]-N-[2-methyl-4-(thiomorpholine-4-sulfonyl)-phenyl]-acetamide], 151.9 to 155.3 °C. To `Cc1cc(S(=O)(=O)NCCN2CCOCC2)ccc1NC(=O)Cc1ccc(C)c(Oc2cc(Cl)cc(C#N)c2)c1` [Compound I-118, 2-[3-(3-Chloro-5-cyano-phenoxy)-4-methyl-phenyl]-N-[2-methyl-4-(2-morpholin-4-yl-ethylsulfamoyl)-phenyl]-acetamide] belongs 177 to 181 °C; to `Cc1cc(S(N)(=O)=O)ccc1NC(=O)Cc1ccc(Cl)c(Oc2cc(C#N)cc(C(F)(F)F)c2)c1F` [Compound I-120, 2-[4-Chloro-3-(3-cyano-5-trifluoromethyl-phenoxy)-2-fluoro-phenyl]-N-(2-methyl-4-sulfamoyl-phenyl)-acetamide], 212 to 216.1 °C; to `Cc1cc(S(=O)(=O)NC2CCC(O)CC2)ccc1NC(=O)Cc1ccc(C)c(Oc2cc(Cl)cc(C#N)c2)c1` (stereo not shown) [Compound I-121, 2-[3-(3-Chloro-5-cyano-phenoxy)-4-methyl-phenyl]-N-[4-(4-hydroxy-cyclohexylsulfamoyl)-2-methyl-phenyl]-acetamide], 195.1 to 197.7 °C. Regarding `Cc1cc(S(N)(=O)=O)ccc1NC(=O)Cc1ccc(C)c(Oc2cc(Cl)cc(C#N)c2)c1` [Compound I-122, 2-[3-(3-Chloro-5-cyano-phenoxy)-4-methyl-phenyl]-N-(2-methyl-4-sulfamoyl-phenyl)-acetamide], the melting point was in the range of 192.8 to 194.1 °C. As for `Cc1ccc(CC(=O)Nc2ccc(S(N)(=O)=O)cc2Cl)cc1Oc1cc(Cl)cc(C#N)c1` [Compound I-123, 2-[3-(3-Chloro-5-cyano-phenoxy)-4-methyl-phenyl]-N-(2-chloro-4-sulfamoyl-phenyl)-acetamide], the figure is 194 to 194.9 °C.

In turn, `Cc1cc(C#N)cc(Oc2c(Cl)ccc(CC(=O)Nc3ccc(S(N)(=O)=O)cc3C)c2F)n1` [Compound I-124, 2-[4-Chloro-3-(4-cyano-6-methyl-pyridin-2-yloxy)-2-fluoro-phenyl]-N-(2-methyl-4-sulfamoyl-phenyl)-acetamide] showed a melting point of 230.1 to 230.7 °C.

(Values after patent publication US8329755B2, “Methods for treating retroviral infections” (Roche Palo Alto LLC, priority 2004, dated 2012).)
